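Five concentrations, 48 hours, 96-well plates. GI50 is the concentration that inhibits growth by half.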 The source made the active and inactive calls. Rule as the data show it: active = GI50 up to about 1.1 µM and inactive = higher. Where a SMILES comes first, the peptide text is derived from it. The star is where a group is joined. Boc = CC(C)(C)OC(=O)*; OBn = c1ccc(CO*)cc1
Experiments:
Test in all cases: NCI tumour cell line growth inhibition, 48 h
[1] = tested on: SK-MEL-28
[2] = tested on: HCT-116
[3] = tested on: SN12C
[4] = tested on: HCC 2998
[5] = tested on: LOX IMVI
[6] = tested on: DU-145
[7] = tested on: UO-31
[8] = tested on: UACC-62
[9] = tested on: SF-268
[10] = tested on: MDA-N
[11] = tested on: 786-0
[12] = tested on: HOP-92
[13] = tested on: BT-549
[14] = tested on: RXF 393
[15] = tested on: OVCAR-3
[16] = tested on: HCT-15
[17] = tested on: SNB-75
[18] = tested on: NCI-H226
[19] = tested on: SF-539

Structure (SMILES)	GI50 [1]	GI50 [2]	GI50 [3]	GI50 [4]	GI50 [5]	GI50 [6]	GI50 [7]	GI50 [8]	GI50 [9]	GI50 [10]	GI50 [11]	GI50 [12]	GI50 [13]	GI50 [14]	GI50 [15]	GI50 [16] [µM]	GI50 [17]	GI50 [18]	GI50 [19]
O=C(O)CCc1c2ccc(=O)c(O)c-2oc2c(O)c(O)ccc12	> 100 µM (inactive)	18.9 µM (inactive)	15.9 µM (inactive)	8.55 µM (inactive)	20.1 µM (inactive)	> 100 µM (inactive)	> 100 µM (inactive)	> 100 µM (inactive)	32.4 µM (inactive)	16.3 µM (inactive)	19.4 µM (inactive)	> 100 µM (inactive)	87.5 µM (inactive)	> 100 µM (inactive)	91.8 µM (inactive)	79.4	24.9 µM (inactive)		
O=C(O)Cc1c(O)ccc2ccccc12	> 100 µM (inactive)	> 100 µM (inactive)	> 100 µM (inactive)		> 100 µM (inactive)	> 100 µM (inactive)		> 100 µM (inactive)	> 100 µM (inactive)	> 100 µM (inactive)	> 100 µM (inactive)	> 100 µM (inactive)	> 100 µM (inactive)	> 100 µM (inactive)	> 100 µM (inactive)	> 100	> 100 µM (inactive)	> 100 µM (inactive)	> 100 µM (inactive)
Cc1ccn2c(=O)cc(-c3ccccc3)nc2c1	> 100 µM (inactive)	> 100 µM (inactive)	93.8 µM (inactive)	> 100 µM (inactive)		> 100 µM (inactive)		18.7 µM (inactive)	> 100 µM (inactive)	> 100 µM (inactive)	> 100 µM (inactive)	74 µM (inactive)	> 100 µM (inactive)	> 100 µM (inactive)	> 100 µM (inactive)	> 100	18.3 µM (inactive)	> 100 µM (inactive)	> 100 µM (inactive)
CC1(C)C2CCC(N)(C2)C1O (stereo unspecified)	> 100 µM (inactive)	> 100 µM (inactive)	> 100 µM (inactive)	> 100 µM (inactive)	> 100 µM (inactive)	> 100 µM (inactive)	> 100 µM (inactive)	> 100 µM (inactive)		> 100 µM (inactive)	> 100 µM (inactive)	> 100 µM (inactive)	> 100 µM (inactive)	> 100 µM (inactive)	> 100 µM (inactive)	> 100	> 100 µM (inactive)	> 100 µM (inactive)	
CC1(F)C=CC(=O)C=C1	> 100 µM (inactive)	38.4 µM (inactive)	> 100 µM (inactive)	> 100 µM (inactive)	16.3 µM (inactive)	> 100 µM (inactive)	23.6 µM (inactive)	44.9 µM (inactive)	> 100 µM (inactive)	33.2 µM (inactive)	17 µM (inactive)	30.5 µM (inactive)	> 100 µM (inactive)		> 100 µM (inactive)	20	> 100 µM (inactive)	86.9 µM (inactive)	37.9 µM (inactive)
O=C1Nc2ccccc2[C@]12C[C@H]2c1ccccn1	> 100 µM (inactive)	> 100 µM (inactive)	> 100 µM (inactive)	> 100 µM (inactive)	> 100 µM (inactive)	> 100 µM (inactive)	> 100 µM (inactive)	> 100 µM (inactive)	> 100 µM (inactive)	> 100 µM (inactive)	> 100 µM (inactive)	> 100 µM (inactive)	> 100 µM (inactive)	> 100 µM (inactive)	> 100 µM (inactive)	> 100		62.8 µM (inactive)	> 100 µM (inactive)
Cc1cnoc1NS(=O)(=O)c1ccc(Nc2nnc(/C=C/c3c(O)ccc4ccccc34)c(=O)n2N)cc1		22 µM (inactive)	29.4 µM (inactive)		19.1 µM (inactive)	43.8 µM (inactive)	28.7 µM (inactive)	24.5 µM (inactive)	11.3 µM (inactive)	25.4 µM (inactive)	35.1 µM (inactive)	41.3 µM (inactive)	18.7 µM (inactive)	24 µM (inactive)	17.3 µM (inactive)	6.37	20.8 µM (inactive)		
Cn1c(=O)c2c(nc(NCCCCl)n2CC(=O)O)n(C)c1=O	> 100 µM (inactive)	> 100 µM (inactive)	> 100 µM (inactive)	> 100 µM (inactive)	> 100 µM (inactive)	> 100 µM (inactive)	> 100 µM (inactive)	> 100 µM (inactive)	> 100 µM (inactive)	> 100 µM (inactive)	> 100 µM (inactive)	> 100 µM (inactive)	> 100 µM (inactive)	> 100 µM (inactive)	> 100 µM (inactive)	> 100	> 100 µM (inactive)	> 100 µM (inactive)	
O=c1[nH]c(-n2[nH]c3c(c2=O)CCCC3)nc(O)c1-c1ccccc1	> 100 µM (inactive)	> 100 µM (inactive)	> 100 µM (inactive)			> 100 µM (inactive)	> 100 µM (inactive)	> 100 µM (inactive)	> 100 µM (inactive)	> 100 µM (inactive)	> 100 µM (inactive)	> 100 µM (inactive)	> 100 µM (inactive)	> 100 µM (inactive)		> 100		> 100 µM (inactive)	
O=c1[nH]c(=O)n(C2CC(O)C(CO)O2)cc1C1=NC1 (stereo unspecified)	> 100 µM (inactive)	> 100 µM (inactive)	> 100 µM (inactive)	> 100 µM (inactive)		> 100 µM (inactive)	> 100 µM (inactive)	> 100 µM (inactive)	> 100 µM (inactive)	> 100 µM (inactive)	> 100 µM (inactive)	> 100 µM (inactive)	> 100 µM (inactive)	> 100 µM (inactive)	> 100 µM (inactive)	> 100	81.3 µM (inactive)	> 100 µM (inactive)	> 100 µM (inactive)
COC(=O)CCC(C)[C@H]1CCC2C3CC[C@@H]4CC5(CC[C@]4(C)C3C[C@H](OC(C)=O)[C@@]21C)OOC1(CCCCC1)OO5 (stereo partly specified)	27.7 µM (inactive)	3.24 µM (inactive)	> 100 µM (inactive)	2.25 µM (inactive)		7.87 µM (inactive)	2.67 µM (inactive)	> 100 µM (inactive)	19.7 µM (inactive)	8.26 µM (inactive)	12.1 µM (inactive)	46.6 µM (inactive)	27.6 µM (inactive)	> 100 µM (inactive)	15.3 µM (inactive)	11.9	55.2 µM (inactive)	> 100 µM (inactive)	44.7 µM (inactive)
CSC1=C(C#N)C(=O)N(c2ccc(Cl)cc2)C(=O)C1C#N (stereo unspecified)	> 100 µM (inactive)	> 100 µM (inactive)	> 100 µM (inactive)	> 100 µM (inactive)	> 100 µM (inactive)	> 100 µM (inactive)	> 100 µM (inactive)	> 100 µM (inactive)	> 100 µM (inactive)	> 100 µM (inactive)	> 100 µM (inactive)	28.9 µM (inactive)	> 100 µM (inactive)	> 100 µM (inactive)	> 100 µM (inactive)	> 100		> 100 µM (inactive)	> 100 µM (inactive)
Cc1cc(C)c2c(=O)n(CC(O)CN3CCN(CCOCCO)CC3)sc2n1 (stereo unspecified)	17.2 µM (inactive)	17.1 µM (inactive)	18.4 µM (inactive)		18.8 µM (inactive)	30.2 µM (inactive)	20.7 µM (inactive)	18.7 µM (inactive)	20.8 µM (inactive)	15.6 µM (inactive)	16.9 µM (inactive)	19.4 µM (inactive)	16.6 µM (inactive)	4.68 µM (inactive)	22.4 µM (inactive)	42.1	1.65 µM (inactive)	> 100 µM (inactive)	20 µM (inactive)
CC(=O)O[C@H]1C(=O)[C@@]2(C)C(C(OC(=O)c3ccccc3)[C@]3(O)CC(OC(=O)C(O)C(NC(=O)c4ccccc4)c4ccc(F)cc4)C(C)=C1C3(C)C)[C@]1(OC(C)=O)CO[C@@H]1C[C@@H]2O (stereo partly specified)		< 0.001 µM (active)	0.00158 µM (active)	0.00124 µM (active)	0.00129 µM (active)	0.00126 µM (active)	0.166 µM (active)	0.00138 µM (active)	< 0.001 µM (active)	< 0.001 µM (active)	0.00152 µM (active)	3.43 µM (inactive)	0.00152 µM (active)	< 0.001 µM (active)	< 0.001 µM (active)	0.0129	0.00168 µM (active)		< 0.001 µM (active)
O=C(CCc1cccc(O)c1)NCCc1cccc(O)c1	> 100 µM (inactive)	> 100 µM (inactive)	> 100 µM (inactive)	> 100 µM (inactive)	> 100 µM (inactive)	> 100 µM (inactive)	> 100 µM (inactive)	> 100 µM (inactive)	> 100 µM (inactive)	> 100 µM (inactive)	> 100 µM (inactive)	> 100 µM (inactive)	> 100 µM (inactive)	> 100 µM (inactive)	> 100 µM (inactive)	> 100		> 100 µM (inactive)	> 100 µM (inactive)
CC(C)CC(NC(=O)OC(C)(C)C)C(=O)N1CCCC1C(=O)OCc1ccccc1 (stereo not drawn) (Boc-Leu-Pro-OBn; configuration not given here)	76.7 µM (inactive)	> 100 µM (inactive)	> 100 µM (inactive)		40.4 µM (inactive)	> 100 µM (inactive)	75 µM (inactive)	> 100 µM (inactive)	> 100 µM (inactive)	> 100 µM (inactive)	> 100 µM (inactive)	> 100 µM (inactive)	> 100 µM (inactive)	> 100 µM (inactive)	> 100 µM (inactive)	63.4	> 100 µM (inactive)	> 100 µM (inactive)	> 100 µM (inactive)

— ChEMBL document CHEMBL1201862, “PubChem BioAssay data set” (2004)
